Consider 10 compounds from patent publication US5210077A, “Antibodies to cytokinins having a glycosylated isoprenoid side chain and immunoassay methods” (The United States of America as represented by the …, priority 1989, dated 1993).

pIC50: −log10 of the molar value. Entries after “also recorded” stand apart in the source; their conditions may differ. Like-named read-outs stand apart in the source and are kept apart here.

The subject of assay [1] is monoclonal antibody ATCC HB 9658. The assay can be described thus: Inhibition ELISA, specificity of monoclonal antibody ATCC HB 9658. Type of assay: binding, mouse. Particulars: for Relative I50 (relative to E-zeatin-O-β-D-glucopyranoside) / pIC50: antibody ATCC HB 9658; for pIC50: read-out: I50. As to the method:
(§1) Antibodies were screened and further analyzed by solid-phase enzyme immunoassays as follows. Polyvinylchloride assay plates (Costar, Cambridge, MA), were coated with appropriate serum albumin conjugate (made with the O-glucoside derivative or the oxidized zeatin riboside, 10 μg/mL in PBS, 50 μL/well) for 4 h at room temperature or overnight at 4°. Plates were then washed with PBS containing 0.05% "Tween"-20 (PBS-Tween). Remaining sites were blocked by incubation for 1 h with 100 μL/well of 1% BSA in PBS-"Tween" solution (BSA-PBS-"Tween"). Plates were then rewashed and stored for up to 3 weeks at 4° in PBS containing sodium azide.
(§2) Direct binding (titration) and inhibition assays were performed with antibodies dissolved in BSA-PBS-"Tween", a diluent selected to minimize nonspecific interactions with the solid phase, and to suppress binding to the solid phase by antibodies specific for serum albumin.
Inhibition assay format was used to assess antibody specificity. […] In both formats, samples (50 μL/well) were generally applied to plates in triplicate and were incubated 1 h, with shaking. Plates were emptied, washed, rinsed with distilled water, and drained. HRP-labeled rabbit anti-mouse IgG (Zymed Laboratories, South San Francisco, CA) was added at an appropriate dilution (50 μL/well) and incubated for 1 h with shaking. The plates were then washed as before, and bound HRP detected by addition of 50 μL/well of substrate (1 mM ABTS and 6.7 mM H2 O2 in 60 mM sodium citrate buffer, pH 4.2). The absorbance was determined at 415 nm with a microplate reader (Model 308, Bio-Tek, Winooski, VT), generally after 15 min. In some cases, reactions were terminated by addition of 50 μL/well of 10% sodium dodecylsulfate.
Calculations were performed as follows. Assay data was fit to a logistic model. Asymptotic values were determined by inspection of the assay curves, and other coefficients were determined by linear regression. […] Relative affinities are expressed using E-zeatin riboside or E-zeatin-O-β-D-glucopyranoside as standards.
(ELISA stands for enzyme-linked immunosorbent assay.)

Assay [2] relates to mouse polyclonal antibodies. The assay can be described thus: Inhibition ELISA for the mouse polyclonal antibodies. The format is binding. Particulars: for binding by the mouse polyclonal antibody (in words): inhibition ELISA; for Antibody Bound (%): inhibition ELISA with hapten, None = 100. As to the method:
Mouse antibodies were elicited in BALB/c mice by two intraperitoneal inoculations at 3-week intervals with the bovine serum albumin conjugate of E-9-(2-carboxyethyl)zeatin-O-β-D-glucopyranoside emulsified in complete Freund's adjuvant. The dosage was 50-80 μg of conjugate in 0.1-0.2 mL. The mice were bled 1 week after the second injection, and sera were obtained, and tested for antibody.
as §1, §2
Inhibition assay format was used to assess antibody specificity. Antibody at an appropriate dilution determined by titration to give between 50 and 100% of maximal binding was mixed with hapten solution and preincubated for 1 h at room temperature prior to application to the coated wells. In both formats, samples (50 μL/well) were generally applied to plates in triplicate and were incubated 1 h, with shaking. Plates were emptied, washed, rinsed with distilled water, and drained. HRP-labeled rabbit anti-mouse IgG (Zymed Laboratories, South San Francisco, CA) was added at an appropriate dilution (50 μL/well) and incubated for 1 h with shaking. The plates were then washed as before, and bound HRP detected by addition of 50 μL/well of substrate (1 mM ABTS and 6.7 mM H2 O2 in 60 mM sodium citrate buffer, pH 4.2). The absorbance was determined at 415 nm with a microplate reader (Model 308, Bio-Tek, Winooski, VT), generally after 15 min. In some cases, reactions were terminated by addition of 50 μL/well of 10% sodium dodecylsulfate.

Assay [3] concerns monoclonal antibody ATCC HB 9658. Description: Competition ELISA with HRP conjugate of 9-(2-carboxyethyl)zeatin-O-β-D-glucopyranoside and monoclonal antibody ATCC HB 9658. Type of assay: binding, mouse. The following applies: for pIC50: read-out: I50. How it is done: Competition ELISA using cytokinin conjugates of HRP was performed using polystyrene assay plates coated with mouse monoclonal antibodies specific for cytokinins. […] Immediately before use, assay plates were coated with 1 μg/mL of monoclonal IgG in BSA-PBS-Tween. Samples were mixed with an appropriate concentration of cytokinin-HRP conjugate and applied to assay wells in replicate (100 μL/well). After 1 h, wells were drained, washed, and rinsed. Bound conjugate was detected with ABTS substrate solution and quantified by determining absorbance at 415 nm. Calculations were performed as follows. Assay data was fit to a logistic model. Asymptotic values were determined by inspection of the assay curves, and other coefficients were determined by linear regression. […] Relative affinities are expressed using E-zeatin riboside or E-zeatin-O-β-D-glucopyranoside as standards.

With `C/C(=C\CNc1ncnc2c1ncn2[C@@H]1O[C@H](CO)[C@@H](O)[C@H]1O)CO` [9-ribosylzeatin], the “binding by antibody of clone 240 / ATCC HB 9658 (in words)” value in assay [1] is listed as “do not bind”.

In the case of `C/C(=C\CNc1ncnc2c1ncn2CCC(=O)O)CO[C@@H]1O[C@H](CO)[C@@H](O)[C@H](O)[C@H]1O` [Carboxyethylzeatin-O-β-D-glucopyranoside, E-9-(2-carboxyethyl)zeatin-O-β-D-glucopyranoside], in assay [2], the “binding by the mouse polyclonal antibody (in words)” value is “binds” and the “Antibody Bound (%)” value was 76 ± 1%.

Consider `CO[C@@H]1O[C@H](CO)[C@@H](O)[C@H](O)[C@H]1O` [β-Methylglucoside, β-methyl-D-glucopyranoside], for which, in assay [3], the “Relative I50 (relative to E-zeatin-O-β-D-glucopyranoside)” value (“Relative I50” for short) is given as greater than 48000 and the pIC50 is less than 3.00.

Regarding `C/C(=C\CNc1ncnc2c1ncn2[C@@H]1O[C@H](CO)[C@@H](O)[C@H]1O)CO[C@@H]1O[C@H](CO)[C@@H](O)[C@H](O)[C@H]1O` [O-β-D-Glucopyranosyl-E-zeatin-9-riboside], in assay [1] (inhibition ELISA), the “Relative I50” value amounted to 3.4 and the pIC50 is 6.52. Besides, in assay [3], the “Relative I50” value is 1.7 and the pIC50 is 7.46.

On to `CC(CO)CCNc1ncnc2nc[nH]c12` (racemic) [Dihydrozeatin, (RS)-dihydrozeatin], for which, in assay [1] (inhibition ELISA), the “Relative I50” value is greater than 11000 and the pIC50 was less than 3.00. In assay [3], the “Relative I50” value was greater than 4800 and the pIC50 is less than 4.00.

On to `C/C(=C\CNc1ncnc2[nH]cnc12)CO` [E-Zeatin, E-zeatin], for which, in assay [2], the “binding by the mouse polyclonal antibody (in words)” value is “do not bind” and the “Antibody Bound (%)” value is given as 99 ± 3%. Moreover, the “binding by antibody of clone 240 / ATCC HB 9658 (in words)” value in assay [1] is “does not bind significantly; also recorded: do not bind”. In assay [1] (inhibition ELISA, FIG. 4), the “binding reduced relative to zeatin-O-β-D-glucopyranoside” value is recorded as “at least 10,000 fold”. In addition, in assay [1] (inhibition ELISA), the “Relative I50” value was greater than 1100 and the pIC50 is less than 4.00. For the same compound, in assay [3], the “Relative I50” value was greater than 4800 and the pIC50 was less than 4.00.

In the case of `C/C(=C\CN1C(=O)c2ccccc2C1=O)CO[C@@H]1O[C@H](CO)[C@@H](O)[C@H](O)[C@H]1O` [PBG, E-2-methyl-4-phthalimidobut-2-enyl-β-D-glucopyranoside], in assay [1] (inhibition ELISA), the “Relative I50” value stood at 14 and the pIC50 was 5.92. In assay [3], the “Relative I50” value is given as 23 and the pIC50 is 6.31.

Turning to `C/C(=C\CNc1ncnc2c1ncn2[C@@H]1O[C@H](CO)[C@@H](O)[C@H](O)[C@H]1O)CO` [E-Zeatin-9-β-D-glucopyranoside], the “binding by antibody of clone 240 / ATCC HB 9658 (in words)” value in assay [1] is reported as “do not bind”. For the same compound, in assay [1] (inhibition ELISA), the “Relative I50” value is greater than 1100 and the pIC50 was less than 4.00. In assay [3], the “Relative I50” value is given as greater than 48000 and the pIC50 is less than 3.00.

As for `CC(C)=CCNc1ncnc2nc[nH]c12` [Isopentenyladenine, N^6-2-isopentenyladenine], the “Relative I50” value was greater than 11000 in assay [1] (inhibition ELISA) and greater than 4800 in assay [3]. Moreover, the values for the pIC50 in assay [1] (inhibition ELISA) and in assay [3] were less than 3.00 and less than 4.00, respectively.

Regarding `CC(=CCNc1ncnc2[nH]cnc12)COC1OC(CO)C(O)C(O)C1O` [E-Zeatin-O-β-D-glucopyranoside, E-zeatin-O-β-D-glucopyranoside], the “Relative I50” value in assay [1] (inhibition ELISA) and in assay [3] was 1 throughout. The pIC50 in assay [1] (inhibition ELISA) was 7.06; in assay [3], 7.68. Also, the “binding by antibody of clone 240 / ATCC HB 9658 (in words)” value in assay [1] (listed as E-zeatin-O-β-D-glucopyranoside) was “bind”; in assay [1] (listed as zeatin-O-β-D-glucopyranoside) it was “binds”.
